Numbered stars: 1 amine (or outer) side, 2 acyl side, 3 side chain; on linkers, the order of the positions; unused ones are H or OH. Square brackets hold non-standard residues; d marks the D form. Peptide text beside a SMILES is read from it. * marks the point of attachment. X20 = O=C(CCCCCO[C@@H]1O[C@H](CO)[C@@H](O)[C@H](O)[C@H]1N[*:1])[*:2]; NMeF = CN[C@@H](Cc1ccccc1)C(=O)O; hPhe = N[C@@H](CCc1ccccc1)C(=O)O; Nicotinoyl = O=C(c1cccnc1)*; X8 = CCCCCCCCCCCCCCCCCCO*; Morpholide = C1CN(*)CCO1; Piperidide = C1CCN(*)CC1; Nva = CCC[C@H](N)C(=O)O; PhAc = O=C(Cc1ccccc1)*; ODecyl = CCCCCCCCCCO*; X1 = CCCCCCCCCCCCCCO*; Inp = O=C(O)C1CCNCC1; Bz = O=C(c1ccccc1)*; OtBu = CC(C)(C)O*; X6 = O=C(O)CO*
The compounds below were run against VLA-4 (Homo sapiens, UniProt P05556+P13612) (assay: In vitro binding inhibition of 51Cr-labeled Jurkat cells to solid phase-bound CS-1 compound (SEQ ID NO:1)). Details: not given.
VLA-4, sequence (P13612 34-1032): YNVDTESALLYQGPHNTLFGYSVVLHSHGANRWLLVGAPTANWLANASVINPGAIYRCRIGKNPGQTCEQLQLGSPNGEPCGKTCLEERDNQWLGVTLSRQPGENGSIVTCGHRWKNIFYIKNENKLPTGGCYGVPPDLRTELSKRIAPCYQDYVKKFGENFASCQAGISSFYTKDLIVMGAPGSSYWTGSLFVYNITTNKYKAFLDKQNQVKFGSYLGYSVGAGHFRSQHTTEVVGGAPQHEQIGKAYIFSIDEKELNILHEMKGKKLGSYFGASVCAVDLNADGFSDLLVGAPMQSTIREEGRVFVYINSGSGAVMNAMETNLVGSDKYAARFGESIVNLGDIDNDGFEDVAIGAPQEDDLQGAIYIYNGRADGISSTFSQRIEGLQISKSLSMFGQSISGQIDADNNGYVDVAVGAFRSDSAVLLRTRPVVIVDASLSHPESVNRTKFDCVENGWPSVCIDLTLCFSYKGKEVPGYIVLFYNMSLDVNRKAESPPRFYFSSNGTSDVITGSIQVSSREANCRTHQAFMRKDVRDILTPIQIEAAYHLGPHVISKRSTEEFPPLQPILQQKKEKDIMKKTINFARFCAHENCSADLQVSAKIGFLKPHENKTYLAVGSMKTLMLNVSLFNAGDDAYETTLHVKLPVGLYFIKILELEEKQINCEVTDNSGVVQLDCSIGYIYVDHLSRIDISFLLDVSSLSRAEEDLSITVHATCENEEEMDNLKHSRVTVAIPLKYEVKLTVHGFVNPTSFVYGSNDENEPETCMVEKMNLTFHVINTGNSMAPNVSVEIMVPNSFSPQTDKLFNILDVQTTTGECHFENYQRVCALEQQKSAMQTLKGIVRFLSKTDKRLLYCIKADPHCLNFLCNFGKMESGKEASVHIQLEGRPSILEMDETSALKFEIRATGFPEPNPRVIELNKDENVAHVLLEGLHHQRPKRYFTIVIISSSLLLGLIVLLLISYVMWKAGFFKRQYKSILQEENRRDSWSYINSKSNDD
VLA-4, sequence (P05556 21-798): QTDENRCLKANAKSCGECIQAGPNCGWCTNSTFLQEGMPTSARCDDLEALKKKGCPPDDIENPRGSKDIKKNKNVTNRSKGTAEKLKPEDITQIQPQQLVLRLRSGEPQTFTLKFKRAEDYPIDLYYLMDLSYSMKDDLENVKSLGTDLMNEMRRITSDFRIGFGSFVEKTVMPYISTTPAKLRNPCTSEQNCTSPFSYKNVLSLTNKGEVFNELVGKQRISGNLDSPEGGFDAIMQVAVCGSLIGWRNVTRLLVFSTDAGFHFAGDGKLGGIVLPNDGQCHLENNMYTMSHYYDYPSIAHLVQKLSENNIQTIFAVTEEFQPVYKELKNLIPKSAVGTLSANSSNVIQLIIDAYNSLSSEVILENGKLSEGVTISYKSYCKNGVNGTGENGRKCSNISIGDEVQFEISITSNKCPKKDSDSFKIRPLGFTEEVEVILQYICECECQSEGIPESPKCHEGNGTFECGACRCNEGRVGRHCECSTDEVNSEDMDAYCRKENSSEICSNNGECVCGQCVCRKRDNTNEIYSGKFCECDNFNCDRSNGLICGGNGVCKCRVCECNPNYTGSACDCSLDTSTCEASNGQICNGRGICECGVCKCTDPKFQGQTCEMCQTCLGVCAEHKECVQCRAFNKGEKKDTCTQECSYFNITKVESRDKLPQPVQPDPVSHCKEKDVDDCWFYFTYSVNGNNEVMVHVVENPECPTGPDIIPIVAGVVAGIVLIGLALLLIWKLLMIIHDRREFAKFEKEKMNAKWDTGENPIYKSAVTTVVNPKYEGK
Assay type: cell-based
Set-up: inflammatory cells that contain the VLA-4 receptor [Jurkat cells; host or cells: Jurkat (human T lymphoblastic line)
Method: Binding inhibition is measured here as a concentration of compound that inhibits one-half the binding between a standard number of Jurkat cells and a standard amount of CS-1 compound bound to the surface of a microtiter plate well. Those concentrations are conveniently expressed as IC50 values, smaller numbers indicating a lower concentration required to inhibit 50 percent binding and therefore greater potency. Further specifics of this assay are provided hereinafter.
Jurkat cells (ATCC TIB 152), a human T lymphoblastic line, labeled with ^51 chromium were used to assay in vitro binding inhibition provided by various compounds discussed herein.
The plates were prepared as follows: The 25-mer CS-1 compound (SEQ ID NO:1) dissolved at 0.5-1 μg/ml in a buffer of 0.1M NaHCO3 at pH 9.5 that also contained 10 μg/ml of bovine serum albumin (BSA) or a conjugate of the CS-1 compound linked to […] (CS-1-OVA) dissolved at 1-2.5 μg/ml in the same buffer was used as the substrate. Each well of the microtiter plates was coated with 50 μl of substrate or buffer alone for controls. The wells were permitted to dry out completely and were then rinsed twice with PBS at pH 7.4. Non-specific binding sites of each well were then blocked using 200 μl per well of RPMI/1 percent BSA for two hours at room temperature.
Jurkat cells (3-5×10^6 cells) were placed into a 15 ml Falcon™ round-bottom tube with a cap. The tube was centrifuged, and the extra medium was then removed.
Two hundred microliters of a ^51 Cr labeling solution were added to the centrifuged cells and maintained in contact with the cells for 90-120 minutes in a warm room. […] Longer contact times provide a greater amount of labeling but lower cell viability.
The labeled cells are washed with (i) complete medium, (ii) 1 mM EDTA/PBS and then (iii) RPM1/1 percent BSA free of serum components. The cells are centrifuged after each washing. The cells are finally resuspended in serum-free RPMI/1 percent BSA at a concentration of 1×10^6 viable cells/ml, which provides a concentration that is diluted by one-half in the assay.
Inhibitor compounds are prepared as stock solutions at 20 mg/ml in DMSO in 1.5 ml cryogenic screwcap vials, and were stored at -70° C. Using Flow™ round-bottom or V-bottom microtiter plates, the inhibitor compounds were prepared at twice the assay concentration in RPMI/1 percent BSA at 60 μl/well.
Four initial dilutions were typically used.
The ^51 Cr-labeled cells ([…] at 60 μl/well) were then admixed with the diluted compound solutions. The admixtures were maintained at room temperature (about 22° C.) for 30 minutes.
One hundred microliters of each inhibitor compound/cell admixture were transferred to the substrate-coated wells. This was done in triplicate for each dilution. The resulting plates were incubated for 30 minutes at 37° C. and then washed gently three times with RPMI/1 percent BSA at 200 μl/well. Binding was observed microscopically, particularly after the second wash.
The bound cells were then lysed by the addition of a 0.5 percent solution of sodium dodecylsulfate in water at 100 μl/well. The resulting solutions were then processed for counting and calculation of IC50 values following usual procedures.
The data of Table 1 are normalized to the binding of SEQ ID NO: 3. […] Multiple assays for the same compound were averaged.

Row | SMILES | Relative Potency
1 | CC(=O)N[C@@H](CO)C(=O)N[C@@H](Cc1ccccc1)C(=O)N[C@@H](CC(=O)O)C(=O)N[C@@H](Cc1ccccc1)C(=O)N[C@@H](CO)C(N)=O [951.46] (Ac-SFDFS-NH2) | .22
2 | CC[C@H](C)[C@H](N)C(=O)N[C@@H](CC(C)C)C(=O)N[C@@H](CC(=O)O)C(=O)N[C@@H](Cc1ccccc1)C(=O)N1CCC[C@H]1C(N)=O [926.12] (H-ILDFP-NH2) | 1.99
3 | CC[C@H](C)[C@H](N)C(=O)N[C@@H](CC(C)C)C(=O)N[C@@H](CC(=O)O)C(=O)N[C@H](C(=O)N1CCC[C@H]1C(=O)O)C(C)C [886.05] (H-ILDVP-OH) | 2
4 | CCC[C@H](NC(=O)[C@@H](N)[C@@H](C)CC)C(=O)N[C@@H](CC(=O)O)C(=O)N[C@H](C(=O)N1CCC[C@H]1C(N)=O)C(C)C [926.10] (H-I[Nva]DVP-NH2) | .13
5 | Cc1ccc(C(=O)N[C@@H](CC(C)C)C(=O)N[C@@H](CC(=O)O)C(=O)N[C@H](C(=O)N2CCC[C@@H]2C(N)=O)C(C)C)cc1C [896.37] | 5.01
6 | CC(C)C[C@@H](C(=O)N[C@@H](CC(=O)O)C(=O)N[C@H](C(=O)N1CCC[C@@H]1C(N)=O)C(C)C)N1C(=O)c2ccccc2C1=O [896.51] | 110
7 | CC(C)C[C@H](NC(=O)c1cccnc1)C(=O)N[C@@H](CC(=O)O)C(=O)N[C@@H](Cc1ccccc1)C(=O)N1CCC[C@@H]1C(N)=O [896.55] (Nicotinoyl-LDF[dP]-NH2) | 105
8 | CC(C)C[C@H](NC(=O)[C@@H](N)Cc1ccccc1)C(=O)N[C@@H](CC(=O)O)C(=O)N[C@@H](Cc1ccccc1)C(=O)N1CCC[C@@H]1C(N)=O [896.27] (H-FLDF[dP]-NH2) | 16.9
9 | CC(=O)N[C@H]1[C@H](OCCCCCC(=O)N[C@@H](Cc2ccccc2)C(=O)N[C@@H](CC(C)C)C(=O)N[C@@H](CC(=O)O)C(=O)N[C@@H](Cc2ccccc2)C(=O)N2CCCCC2)O[C@H](CO)[C@@H](O)[C@@H]1O [1063.01] (Ac-[X20]FLDF-Piperidide) | 40.7
10 | CC(C)C[C@H](NC(=O)[C@@H](N)Cc1ccccc1)C(=O)N[C@@H](CC(=O)O)C(=O)N[C@H](C(=O)N1CCC[C@@H]1C(N)=O)C(C)C [926.04] (H-FLDV[dP]-NH2) | 1.88
11 | CC(C)[C@@H]1CC[C@@H](C)C[C@H]1OCC(=O)N[C@@H](CC(=O)O)C(=O)N[C@@H](Cc1ccccc1)C(=O)N1CCC[C@@H]1C(N)=O [1056.06] | 0
12 | CC(C)C[C@H](NC(=O)CCC1CCCCC1)C(=O)N[C@@H](CC(=O)O)C(=O)N[C@H](C(=O)N1CCC[C@@H]1C(N)=O)C(C)C [896.45] | 1.75
13 | CCC[C@H](NC(=O)[C@H](CC(=O)O)NC(=O)[C@H](CC(C)C)NC(=O)[C@@H](N)[C@@H](C)CC)C(=O)N1CCC[C@H]1C(N)=O [926.16] (H-ILD[Nva]P-NH2) | .34
14 | CC(C)C[C@H](N)C(=O)N[C@@H](CC(=O)O)C(=O)N[C@H](C(N)=O)C(C)C [926.29] (H-Leu-Asp-Val-NH2) | 0.01
15 | CCC(C)CC(=O)N[C@@H](CC(C)C)C(=O)N[C@@H](CC(=O)O)C(=O)N[C@H](C(=O)N1CCC[C@@H]1C(N)=O)C(C)C (stereo partly shown) [896.46] | 6.57
16 | CC(C)C[C@H](NC(=O)c1ccccn1)C(=O)N[C@@H](CC(=O)O)C(=O)N[C@H](C(=O)N1CCC[C@@H]1C(N)=O)C(C)C [896.54] | 13
17 | CC(C)C[C@H](NC(=O)CCc1ccccc1)C(=O)N[C@@H](CC(=O)O)C(=O)N[C@H](C(=O)N1CCC[C@@H]1C(N)=O)C(C)C [896.40] | 5.32

Same assay, conditions: binding inhibition potency relative to standard compound of SEQ ID NO:3 = 1 (normalized IC50); about one-tenth or less assigned zero

Row | SMILES | Relative Potency
18 | CC(C)C[C@H](NC(=O)Cc1ccccc1)C(=O)N[C@@H](CC(=O)O)C(=O)N[C@@H](Cc1ccc(O)cc1)C(=O)N1CCC[C@@H]1C(N)=O [896.61] (PhAc-LDY[dP]-NH2) | 612
19 | O=C(O)C[C@H](NC1CCN(C(=O)Cc2ccccc2)CC1)C(=O)N[C@@H](Cc1ccccc1)C(=O)N1CCCC1 [992.01] | 0
20 | CC(C)C[C@H](NC(=O)Cc1ccccc1)C(=O)N[C@@H](CC(=O)O)C(=O)NC1Cc2ccccc2N(CCN2CCOCC2)C1=O (stereo partly shown) [997.18] | 20
21 | CC(C)C[C@H](NC(=O)Cc1ccccc1)C(=O)N[C@@H](CC(=O)O)C(=O)N[C@H]1Cc2ccccc2[C@H]2CCCCN2C1=O [1026.05] | 50.1
22 | CC(C)C[C@H](NC(=O)Cc1ccccc1)C(=O)N[C@@H](CC(=O)O)C(=O)N[C@@H](Cc1ccc(O)cc1)C(=O)OC(C)(C)C [1040.02] (PhAc-Leu-Asp-Tyr-OtBu) | 14.7
23 | CC(C)C[C@H](NC(=O)c1ccccc1)C(=O)N[C@@H](CC(=O)O)C(=O)N[C@@H](Cc1ccccc1)C(=O)N1CCC[C@@H]1C(N)=O [896.28] (Bz-LDF[dP]-NH2) | 44.6
24 | CC(C)C[C@H](NC(=O)Cc1ccccc1)C(=O)N[C@@H](CC(=O)O)C(=O)N[C@@H](CCc1ccccc1)C(=O)N1CCC[C@@H]1C(N)=O [1062.03] (PhAc-LD[hPhe][dP]-NH2) | 93.9
25 | CC(C)C[C@H](NC(=O)Cc1ccccc1)C(=O)NC(CC(=O)O)(CC(=O)O)C(=O)N[C@@H](Cc1ccccc1)C(=O)N1CCCCC1 [1026.01] | 0
26 | CC(C)C[C@H](NC(=O)Cc1ccccc1)C(=O)N[C@@H](CC(=O)O)C(=O)N[C@@H](Cc1ccccc1)C(=O)N1CCC(C(N)=O)CC1 [1111.05] (PhAc-LDF[Inp]-NH2) | 942
27 | CC(C)C[C@H](NC(=O)c1cccc2ccccc12)C(=O)N[C@@H](CC(=O)O)C(=O)N[C@H](C(=O)N1CCC[C@@H]1C(N)=O)C(C)C [896.43] | 4.38
28 | CC(C)C[C@H](NC(=O)Cc1ccccc1)C(=O)N[C@@H](CC(=O)O)C(=O)N1C(=O)N(Cc2ccccc2)C(=O)[C@H]1Cc1ccccc1 [1047.07] | .38
29 | CC(C)C[C@H](NC(=O)Cc1ccccc1)C(=O)N[C@@H](CC(=O)O)C(=O)N[C@@H](Cc1ccccc1)C(=O)N1CCS(=O)(=O)CC1 [1111.03] | 1010
30 | CC(C)C[C@H](NC(=O)Cc1ccccc1)C(=O)N[C@@H](CC(=O)O)C(=O)N[C@@H](CC(C)C)C(=O)N1CCOCC1 [997.20] (PhAc-Leu-Asp-Leu-Morpholide) | 291
31 | CC(C)C[C@H](NC(=O)Cc1ccccc1)C(=O)N[C@@H](CS)C(=O)N[C@@H](Cc1ccccc1)C(=O)N1CCC[C@@H]1C(N)=O [896.59] (PhAc-LCF[dP]-NH2) | 0
32 | CC(C)C[C@H](NC(=O)Cc1ccccc1)C(=O)N[C@@H](CC(=O)O)C(=O)N(C)[C@@H](Cc1ccccc1)C(=O)N1CCC[C@@H]1C(N)=O [1190.05] (PhAc-LD[NMeF][dP]-NH2) | 0
33 | CC(C)C[C@H](NC(=O)Cc1ccccc1)C(=O)N[C@@H](CC(=O)O)C(=O)N[C@@H](Cc1ccccc1)C(N)=O [997.12] (PhAc-Leu-Asp-Phe-NH2) | .45

Same assay, conditions: relative to SEQ ID NO:3 = 1; potency before the prodrug compound is enzymatically converted to an active form

Row | SMILES | Relative Potency (prodrug compound)
34 | CCCCCCCCCCCCCCCCCCOC(=O)C[C@H](NC(=O)[C@H](CC(C)C)NC(=O)Cc1ccccc1)C(=O)N[C@@H](Cc1ccccc1)C(=O)N1CCC[C@@H]1C(N)=O [1068.12] (PhAc-LD(X8)F[dP]-NH2) | 0
35 | CC(C)C[C@H](NC(=O)Cc1ccccc1)C(=O)N[C@@H](CC(=O)OCC(=O)O)C(=O)N[C@@H](Cc1ccccc1)C(=O)N1CCC[C@@H]1C(N)=O [1067.02] (PhAc-LD(X6)F[dP]-NH2) | .81
36 | CCCCCCCCCCCCCCOC(=O)C[C@H](NC(=O)[C@H](CC(C)C)NC(=O)Cc1ccccc1)C(=O)N[C@@H](Cc1ccccc1)C(=O)N1CCC[C@@H]1C(N)=O [1068.11] (PhAc-LD(X1)F[dP]-NH2) | 0
37 | CCCCCCCCCCOC(=O)C[C@H](NC(=O)[C@H](CC(C)C)NC(=O)Cc1ccccc1)C(=O)N[C@@H](Cc1ccccc1)C(=O)N1CCC[C@@H]1C(N)=O [1068.09] (PhAc-LD(ODecyl)F[dP]-NH2) | 0
